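Exposure lasted 48 hours, with cells grown in 96-well plates and compounds tested at five concentrations. TGI marks complete inhibition of growth.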
Assays:
Assay in all cases: NCI-60 cell line screen, 48 h
786-0 renal = test system: 786-0 renal
CCRF-CEM leukemia = test system: CCRF-CEM leukemia
EKVX NSCLC = test system: EKVX NSCLC
HCT-116 colon = test system: HCT-116 colon
HL-60(TB) leukemia = test system: HL-60(TB) leukemia
HOP-92 NSCLC = test system: HOP-92 NSCLC
HT29 colon = test system: HT29 colon
LOX IMVI melanoma = test system: LOX IMVI melanoma
NCI-H460 lung = test system: NCI-H460 lung
OVCAR-5 ovarian = test system: OVCAR-5 ovarian
RPMI-8226 leukemia = test system: RPMI-8226 leukemia
SF-268 CNS = test system: SF-268 CNS
SF-295 CNS = test system: SF-295 CNS
SK-MEL-5 melanoma = test system: SK-MEL-5 melanoma
SNB-19 CNS = test system: SNB-19 CNS
UO-31 renal = test system: UO-31 renal
XF 498 CNS = test system: XF 498 CNS
DU-145 prostate = test system: DU-145 prostate
HS 578T breast = test system: HS 578T breast
PC-3 prostate = test system: PC-3 prostate

| SMILES | TGI (786-0 renal) [µM] | TGI (CCRF-CEM leukemia) [µM] | TGI (EKVX NSCLC) [µM] | TGI (HCT-116 colon) [µM] | TGI (HL-60(TB) leukemia) [µM] | TGI (HOP-92 NSCLC) [µM] | TGI (HT29 colon) [µM] | TGI (LOX IMVI melanoma) [µM] | TGI (NCI-H460 lung) [µM] | TGI (OVCAR-5 ovarian) [µM] | TGI (RPMI-8226 leukemia) [µM] | TGI (SF-268 CNS) [µM] | TGI (SF-295 CNS) [µM] | TGI (SK-MEL-5 melanoma) [µM] | TGI (SNB-19 CNS) [µM] | TGI (UO-31 renal) [µM] | TGI (XF 498 CNS) [µM] | TGI (DU-145 prostate) [µM] | TGI (HS 578T breast) [µM] | TGI (PC-3 prostate) [µM] |
| --- | --- | --- | --- | --- | --- | --- | --- | --- | --- | --- | --- | --- | --- | --- | --- | --- | --- | --- | --- | --- |
| O=C1CCCCC1C1(O)C(=O)Nc2cc(F)ccc21 (configuration not stated) | > 100 | > 100 | > 100 | > 100 | > 100 | > 100 | > 100 | > 100 | > 100 | > 100 | > 100 | > 100 | > 100 | > 100 | > 100 | > 100 | > 100 | – | – | – |
| CC(C)Cc1ccc(C(C)/C=C2\CCC(CN3CCOCC3)C2=O)cc1 (configuration not stated) | 3.21 | 17.8 | 32.8 | 18.7 | 20.7 | 39.7 | 16.7 | 7.73 | 33.8 | 35.9 | – | 15.9 | 29.3 | 24.3 | 21.4 | 21.8 | 30 | 26.6 | > 100 | 25.4 |
| Cc1cc(=O)cc2sc3cc(Cl)ccc3nc1-2 | 29 | 37.5 | 25 | 28.7 | 26.2 | 57.7 | 43.3 | 24.4 | 35.4 | 43.7 | > 100 | 79.5 | 26.6 | 12.6 | 61.9 | 63.1 | 31.3 | – | – | – |
| CC(C)CC(=O)N1CCN(C(=O)CC(C)C)c2ccccc21 | > 100 | > 100 | > 100 | > 100 | > 100 | > 100 | > 100 | > 100 | > 100 | > 100 | > 100 | > 100 | > 100 | – | > 100 | > 100 | > 100 | – | – | – |
| N#Cc1ccc(Nc2cnc3cc(N)ccc3n2)cc1 | > 100 | > 100 | > 100 | > 100 | > 100 | > 100 | > 100 | > 100 | > 100 | > 100 | > 100 | > 100 | > 100 | > 100 | > 100 | > 100 | > 100 | – | – | – |
| CCN(CC)CC(O)CNc1ccc(NCC(O)CCl)c2c1C(=O)c1ccccc1C2=O (configuration not stated) | 15.9 | 11.4 | 29.5 | 14.5 | 11.3 | 18.2 | 16.5 | 2.17 | 12.5 | 29.2 | 26.6 | 19.9 | 22.1 | 22.1 | 25.9 | 17.9 | 26.9 | 29.3 | 31 | 19.8 |
| COC1=C(C)C(=O)C2C(C1=O)C(c1ccc(OC)c(OC)c1)[C@H]2C (some centres not stated) | > 100 | > 100 | > 100 | – | > 100 | > 100 | > 100 | > 100 | > 100 | > 100 | > 100 | > 100 | > 100 | > 100 | > 100 | > 100 | > 100 | – | – | – |
| CCCCCCCCCCCCCCCCc1c(C(=O)OC)[nH]c(=S)[nH]c1=O | > 50 | > 50 | > 50 | > 50 | > 50 | 41 | > 50 | > 50 | > 50 | > 50 | > 50 | > 50 | > 50 | > 50 | > 50 | > 50 | > 50 | – | – | – |
| CSc1nc2nc(C)c(C)nc2c(=O)[nH]1 | > 100 | > 100 | > 100 | > 100 | > 100 | > 100 | > 100 | > 100 | > 100 | > 100 | > 100 | > 100 | > 100 | > 100 | > 100 | > 100 | > 100 | – | – | – |
| COc1ccc(Cc2cc(OC)c(OC)c(OC)c2)cc1O | > 100 | > 100 | > 100 | 13.6 | > 26.6 | – | > 90.6 | > 100 | > 100 | > 100 | > 100 | > 100 | > 100 | > 37 | > 100 | > 63.2 | > 100 | > 100 | > 100 | > 100 |
| O=[N+]([O-])c1ccccc1S(=O)(=O)c1ccccc1[N+](=O)[O-] | > 100 | > 100 | > 56.2 | > 100 | > 100 | 91.4 | > 100 | > 100 | > 100 | > 100 | > 100 | > 89.3 | > 100 | > 56.2 | > 97.7 | > 100 | 72.4 | > 100 | > 100 | > 100 |
| Nc1ccccc1S(=O)c1ccccc1 (configuration not stated) | > 100 | > 100 | > 100 | > 100 | > 100 | > 100 | > 1 | > 100 | > 100 | > 100 | > 100 | > 100 | > 100 | > 100 | > 100 | > 100 | > 100 | – | – | – |

Source: PubChem BioAssay (NCI)
